How the values were obtained:
[1] = molecular target: T1, C-Raf kinase (Homo sapiens, UniProt P04049, Y340D/Y341D); assay: Biochemical assay for C-Raf.1 (coupled pyruvate kinase/lactate dehydrogenase); conditions: read-out: CRAF.1 IC50
T1 construct: Y340D,; GST (N); purchased Sigma
Procedure, shortened: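 C-Raf (0.43 nM) with MEK 30.1 nM and 1 mM ATP in Tris pH 7.5/MgCl2 buffer, activity coupled via PK/LDH to NADH oxidation (A340), 6 h at 30° C. Rates from 4–5 h window converted to % inhibition versus controls; IC50 by four-parameter fit, 1% DMSO.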

[2] = molecular target: T2, A-Raf kinase (Homo sapiens, UniProt P10398, Y301D/Y302D); assay: Biochemical assay for A-Raf.1 (coupled pyruvate kinase/lactate dehydrogenase); conditions: read-out: ARAF.1 IC50
T2 construct: purchased Sigma
Procedure, shortened: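 A-Raf (5.55 nM) phosphorylating 30.1 nM MEK with 1 mM ATP was monitored by pyruvate kinase/lactate dehydrogenase-coupled NADH oxidation at 340 nm for 6 h at 30° C, in pH 7.5 Tris buffer with 15 mM MgCl2, 1% DMSO. Rates from 4–5 h gave percent inhibition; IC50 by four-parameter fit.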

[3] = system: H2405 cells; assay: H2405 cell proliferation assay (1), resazurin, 96-well; assay type: cell-based; conditions: Homo sapiens, NCI-H2405, inhibition of cell proliferation
Procedure: H2405 Cell Proliferation Assay (1)
H2405 cells (catalog #CRL-5944) are obtained from the American Type Culture Collect (ATTC, Manassas, VA). Briefly, cells were grown in RPMI 1640 supplemented with 5% characterized fetal bovine serum (Invitrogen, Carlsbad, CA) and 1% Penicillin/Streptomycin/L-Glutamine at 37° C., 5% CO2, and 95% humidity. Cells are expanded until reaching 70-95% confluency at which point they are subcultured or harvested for assay use. A serial dilution of test compound is dispensed into a 96-well black clear bottom plate in triplicate. Three thousand cells are added per well in 200 μL complete growth medium in the 96-well plate. Plates are incubated for 67-72 hours at 37° C., 5% CO2, and 95% humidity. At the end of the incubation, 40 μL of a 440 μM solution of resazurin (Sigma, St. Louis, MO) in PBS is added to each well of the plate and plates are incubated for an additional 5-6 hours at 37° C., 5% CO2, and 95% humidity. Plates are read on a Synergy2 or equivalent reader (Biotek, Winooski VT) using an excitation of 540 nm and an emission of 600 nm. Data is analyzed using Prism software (GraphPad, San Diego, CA) to calculate IC50 values.

[4] = system: A375 cells; assay: A375 cell proliferation assay (1), resazurin, 96-well; assay type: cell-based; conditions: Homo sapiens, A-375, inhibition of cell proliferation
Procedure, shortened: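 Viability was read by resazurin fluorescence at 540 nm excitation and 600 nm emission, using a 440 μM solution added for 5–6 h at the end of culture. IC50 came from the curve fit.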

T1 sequence (P04049 307-648 Y340D/Y341D): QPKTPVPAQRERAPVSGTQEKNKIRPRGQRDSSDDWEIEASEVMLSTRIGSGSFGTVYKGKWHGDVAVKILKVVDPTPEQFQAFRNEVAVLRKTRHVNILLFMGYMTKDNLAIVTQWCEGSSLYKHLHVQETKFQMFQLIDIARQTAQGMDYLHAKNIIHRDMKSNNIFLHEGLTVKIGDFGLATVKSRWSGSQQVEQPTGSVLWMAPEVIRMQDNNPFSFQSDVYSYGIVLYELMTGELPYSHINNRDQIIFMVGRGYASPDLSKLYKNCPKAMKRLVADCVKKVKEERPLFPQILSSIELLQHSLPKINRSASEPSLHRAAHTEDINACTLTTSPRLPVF
T2 sequence (P10398 with tags, fused parts or gaps Y301D/Y302D): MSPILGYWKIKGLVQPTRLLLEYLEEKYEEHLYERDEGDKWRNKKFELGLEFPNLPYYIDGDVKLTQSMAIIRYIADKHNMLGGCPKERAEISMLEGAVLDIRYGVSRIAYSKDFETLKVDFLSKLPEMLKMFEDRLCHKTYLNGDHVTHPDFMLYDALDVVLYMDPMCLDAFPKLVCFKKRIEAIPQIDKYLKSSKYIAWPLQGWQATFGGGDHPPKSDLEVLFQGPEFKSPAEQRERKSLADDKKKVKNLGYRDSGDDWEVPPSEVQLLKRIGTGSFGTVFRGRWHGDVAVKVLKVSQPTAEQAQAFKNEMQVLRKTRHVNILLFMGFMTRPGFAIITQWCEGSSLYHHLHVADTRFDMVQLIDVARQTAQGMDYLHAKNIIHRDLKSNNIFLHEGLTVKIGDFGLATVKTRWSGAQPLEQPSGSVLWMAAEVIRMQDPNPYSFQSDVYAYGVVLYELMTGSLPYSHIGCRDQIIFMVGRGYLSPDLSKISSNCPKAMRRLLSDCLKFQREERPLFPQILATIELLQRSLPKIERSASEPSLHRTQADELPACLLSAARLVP

SMILES | IC50 [1] [nM] | IC50 [2] [nM] | IC50 [3] [nM] | IC50 [4] [nM]
Cc1cc(F)c(NC(=O)NCCC(C)C)cc1-c1cc(OCCO)nc(-c2ccnc(NC(=O)C3CC3)c2)c1 [Example 106] | ≤ 100 | > 1000 | 100 to 500 | 100 to 500
COC[C@H]1CCN(C(=O)Nc2cnc(C)c(-c3cc(OCCO)nc(-c4ccnc(NC(=O)OC)c4)c3)c2)C1 [Example 152] | 100 to 500 | > 1000 | 1000 to 10000 | 1000 to 10000
COC(=O)Nc1cc(-c2cnnc(-c3cc(NC(=O)NCCC(C)(C)OC)cnc3C)c2)ccn1 [Example 153] | 500 to 1000 | > 1000 | 1000 to 10000 | 1000 to 10000
CNC(=O)c1cc(-c2cnnc(-c3cc(NC(=O)NCCC(C)(C)OC)c(F)cc3C)c2)ccn1 [Example 123] | 500 to 1000 | > 1000 | 1000 to 10000 | 1000 to 10000
COC(=O)Nc1nccc(-c2cc(OCCO)cc(-c3cc(NC(=O)NCCC4(C)CC4)c(F)cc3C)c2)n1 [Example 122] | ≤ 100 | > 1000 | 500 to 1000 | 500 to 1000
COC(=O)Nc1cc(-c2nccc(-c3cc(NC(=O)NCCC(C)(C)F)c(F)cc3C)n2)ccn1 [Example 147] | ≤ 100 | > 1000 | 1000 to 10000 | 1000 to 10000
COC(=O)Nc1cc(-c2nccc(-c3cc(NC(=O)NCCC(C)(C)OC)c(F)cc3C)n2)ccn1 [Example 129] | ≤ 100 | > 1000 | 1000 to 10000 | 1000 to 10000
COC(=O)Nc1cc(-c2cnnc(-c3cc(NC(=O)NCCC(C)(C)OC)c(F)cc3C)c2)ccn1 [Example 140] | 100 to 500 | > 1000 | 1000 to 10000 | 1000 to 10000
Cc1ncc(NC(=O)NC[C@H](O)C(C)(C)C)cc1-c1ccnc(-c2ccnc(NC(=O)C3CC3)c2)c1 [Example 102] | ≤ 100 | > 1000 | 1000 to 10000 | 1000 to 10000
COC(=O)Nc1cc(-c2cc(-c3cc(NC(=O)NCCC(C)(C)OC)c(F)cc3F)ccn2)ccn1 [Example 163] | 100 to 500 | > 1000 | 1000 to 10000 | 1000 to 10000
CNC(=O)c1cc(-c2cc(-c3cc(NC(=O)NCCC4(C)CC4)c(F)cc3C)cc(OCCO)n2)ccn1 [Example 164] | ≤ 100 | > 1000 | 100 to 500 | ≤ 100
Cc1cc(F)c(NC(=O)NCCC(C)(C)F)cc1-c1cc(OCCO)nc(-c2ccnc3[nH]ncc23)c1 [Example 94] | ≤ 100 | > 1000 | 100 to 500 | 500 to 1000
Cc1cc(F)c(NC(=O)NCCC(F)F)cc1-c1cc(OCCO)nc(-c2ccnc(NC(=O)C3CC3)c2)c1 [Example 105] | ≤ 100 | 100 to 500 | 500 to 1000 | 1000 to 10000
COC(=O)Nc1cc(-c2cc(-c3cc(NC(=O)N[C@H]4C[C@](C)(F)C4)cnc3C)cc(OCCO)n2)ccn1 [Example 157] | ≤ 100 | > 1000 | 1000 to 10000 | 1000 to 10000
Cc1cc(F)c(NC(=O)NCCC(C)(C)F)cc1-c1nccc(-c2ccnc(NC(=O)C3CC3)c2)n1 [Example 114] | ≤ 100 | 100 to 500 | 500 to 1000 | 1000 to 10000
Cc1ncc(NC(=O)NC2CC(C)(C)C2)cc1-c1cc(OCCO)nc(-c2ccnc(NC(=O)C3CC3)c2)n1 [Example 144] | ≤ 100 | > 1000 | 100 to 500 | 500 to 1000
COC(=O)Nc1cc(-c2cnnc(-c3cc(NC(=O)NCCC(C)(C)F)c(F)cc3C)c2)ccn1 [Example 141] | ≤ 100 | > 1000 | 1000 to 10000 | 1000 to 10000
COC(=O)Nc1cc(-c2cccc(-c3cc(NC(=O)NCCC4(C)CC4)cnc3C)c2)ncn1 [Example 170] | ≤ 100 | > 1000 | 100 to 500 | 500 to 1000
COC[C@@H]1CCN(C(=O)Nc2cnc(C)c(-c3cc(OCCO)nc(-c4ccnc(NC(=O)OC)c4)c3)c2)C1 [Example 160] | 100 to 500 | > 1000 | 1000 to 10000 | 1000 to 10000
CCC(C)CCNC(=O)Nc1cnc(C)c(-c2ccnc(-c3ccnc(NC(=O)C4CC4)c3)c2)c1 (stereo not shown) [Example 124] | ≤ 100 | > 1000 | 1000 to 10000 | 1000 to 10000
Cc1ncc(NC(=O)NCCC2(C)CC2)cc1-c1cc(OCCO)nc(-c2ccnc(NC(=O)C3CC3)c2)c1 [Example 113] | ≤ 100 | 500 to 1000 | 100 to 500 | 100 to 500
Cc1cc(F)c(NC(=O)NCCC(C)(C)F)cc1-c1cccc(-c2cc(NC(=O)C3CC3)ncn2)c1 [Example 127] | ≤ 100 | 100 to 500 | 1000 to 10000 | 1000 to 10000
COC(C)(C)CCNC(=O)Nc1cnc(C)c(-c2cc(-c3ccnc(NC(=O)C4CC4)c3)cnn2)c1 [Example 121] | ≤ 100 | > 1000 | 1000 to 10000 | 1000 to 10000
Cc1ncc(NC(=O)NCCC2(C)CC2)cc1-c1ccnc(-c2ccnc(NC(=O)C3CC3)c2)n1 [Example 107] | ≤ 100 | 500 to 1000 | 100 to 500 | 1000 to 10000
Cc1ccc(NC(=O)Nc2cccc(C(F)(F)F)c2)cc1-c1cc(OCCO)nc(N2CCOCC2)c1 [Example 3, 1-(3-(2-(2-hydroxyethoxy)-6-morpholinopyridin-4-yl)-4-methylphenyl)-3-(3-(trifluoromethyl)phenyl)urea] | ≤ 100 | 100 to 500 |  | 500 to 1000

Other lines, results leading:

IC50 [1] [nM] | IC50 [2] [nM] | IC50 [3] [nM] | IC50 [4] [nM] | SMILES
≤ 100 | 100 to 500 | 100 to 500 | 500 to 1000 | COC(C)(C)CCNC(=O)Nc1cc(-c2ccnc(-c3ccnc(NC(=O)C4CC4)c3)n2)c(C)cc1F [Example 108]
≤ 100 | > 1000 | 1000 to 10000 | 1000 to 10000 | Cc1ncc(NC(=O)NCCC2(C)CC2)cc1-c1cc(OCCO)nc(-c2ccnc3c2CC(=O)N3)c1 [Example 112]
≤ 100 | > 1000 | 100 to 500 | 1000 to 10000 | COC(=O)Nc1cc(-c2cc(-c3cc(NC(=O)NCCC4(C)CC4)cnc3C)cc(OCCO)n2)ccn1 [Example 151]
≤ 100 | > 1000 | ≤ 100 | 100 to 500 | COC(=O)Nc1cc(-c2nc(OCCO)cc(-c3cc(NC(=O)NCCC(C)(C)F)c(F)cc3C)n2)ccn1 [Example 161]
100 to 500 | > 1000 | 1000 to 10000 | 1000 to 10000 | COC(=O)Nc1cc(-c2cc(-c3cc(NC(=O)NC[C@H]4CCO4)c(F)cc3C)cc(OCCO)n2)ccn1 [Example 96]
≤ 100 | 500 to 1000 | ≤ 100 | 100 to 500 | Cc1cc(F)c(NC(=O)NCCC2(C)CC2)cc1-c1cnnc(-c2ccnc(NC(=O)C3CC3)c2)c1 [Example 168]
100 to 500 | > 1000 | 1000 to 10000 | 1000 to 10000 | CNC(=O)c1cc(-c2cnnc(-c3cc(NC(=O)NCCC(C)(C)F)c(F)cc3C)c2)ccn1 [Example 132]
> 1000 | > 1000 | 1000 to 10000 | 1000 to 10000 | COC(=O)Nc1cc(-c2cc(-c3cc(NC(=O)NCCN4CCC4)c(F)cc3C)cc(OCCO)n2)ccn1 [Example 125]
≤ 100 | > 1000 | 1000 to 10000 | 1000 to 10000 | Cc1ncc(NC(=O)NCCC(C)(C)F)cc1-c1ccnc(-c2ccnc(NC(=O)C3CC3)c2)n1 [Example 136]
≤ 100 | > 1000 | 1000 to 10000 | 1000 to 10000 | COC(=O)Nc1cc(-c2cc(-c3cc(NC(=O)NCCC(C)(C)C)cnc3C)ccn2)ccn1 [Example 109]
≤ 100 | 500 to 1000 | 500 to 1000 | 100 to 500 | Cc1ncc(NC(=O)NC2CC(C)(C)C2)cc1-c1cc(OCCO)nc(-c2ccnc(NC(=O)C3CC3)c2)c1 [Example 126]
≤ 100 | > 1000 | 1000 to 10000 | 1000 to 10000 | Cc1cc(F)c(NC(=O)NC2CC3(COC3)C2)cc1-c1cc(OCCO)nc(-c2ccnc3[nH]ncc23)c1 [Example 101]
≤ 100 | > 1000 | 1000 to 10000 | 1000 to 10000 | COC(=O)Nc1cc(-c2cc(-c3cc(NC(=O)NCCC4COC4)c(F)cc3C)cc(OCCO)n2)ccn1 [Example 155]

Source: US20230357179A1, “RAF KINASE INHIBITORS AND METHODS OF USE THEREOF” (Deciphera Pharmaceuticals, LLC, priority 2021, published 2023)
